Reference: PubChem BioAssay AID504931 (NMMLSC, 2011)
pEC50: −log10 of the molar value. Activity calls are given as the source filed them.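 How the source made its calls: active means compounds with a reliable fitted curve whose half-effect concentration is below 50 µM; inactive means the rest.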

Key:
[1] = S. cerevisiae superoxide reduction in aged cells – powder samples, confirmation, dose response (AID 504931); conditions: S. cerevisiae aged cells, superoxide DHE fluorescence, 7 d; at 100 µM (top of the series)
[2] = tested on: S. cerevisiae aged cells, superoxide DHE fluorescence, 7 d; assay: as above

With `CC(C)(C)NC(=O)Nc1ccc2nccnc2c1` as the molecule, how does the percent response, lower = inhibition [1] read?
Its percent response, lower = inhibition is 101% (inactive).

Which percent response, lower = inhibition [1] does the source give for `CN(C)C(=O)c1ccc2nccnc2c1` here?
The percent response, lower = inhibition was 181% (inactive).

Which percent response, lower = inhibition [1] does the source give for `C[n+]1c2ccccc2nc2ccc(NCCO)cc21` here?
Its percent response, lower = inhibition is 62.9% (inactive).

For `O=C(O)c1cccc2nccnc12`, which percent response, lower = inhibition [1] is on record?
The percent response, lower = inhibition was 93.9% (inactive).

With `OCC[n+]1c2ccccc2nc2ccc(N3CCOCC3)cc21` as the molecule, how does the pEC50 [2] read?
Its pEC50 is 4.97.

With `CC(C)OC(=O)CSc1nnc(-c2ccc(Cl)cc2Cl)o1` as the molecule, how does the percent response, lower = inhibition [1] read?
Its percent response, lower = inhibition is 97.2% (inactive).

With `Cc1ccccc1NC(=O)c1cccc2nc3ccccc3nc12` as the molecule, how does the pEC50 [2] read?
Its pEC50 is 5.26.

With `CCCCCNC(=O)C(=O)C1C(=O)Nc2ccccc21` (stereo not drawn) as the molecule, how does the pEC50 [2] read?
The pEC50 was 6.48.

With `CCN(CC)C(=O)c1ccc2nc3ccccc3nc2c1` as the molecule, how does the pEC50 [2] read?
The pEC50 was 6.10.

With `Nc1cc2nc3ccccc3nc2cc1N` as the molecule, how does the pEC50 [2] read?
Its pEC50 is 5.35.

With `CC(=O)Nc1ccc2nc3ccccc3nc2c1` as the molecule, how does the pEC50 [2] read?
The pEC50 was 6.48.

Which percent response, lower = inhibition [1] does the source give for `O=C(c1ccc2nccnc2c1)N1CCN(c2ccccc2)CC1` here?
The percent response, lower = inhibition was 89.9% (inactive).

For `O=C(CN1CCN(c2ccccn2)CC1)Nc1ccccc1F`, which percent response, lower = inhibition [1] is on record?
Its percent response, lower = inhibition is 98.8% (inactive).

With `CC(C)OC(=O)c1ccc2nc3ccccc3nc2c1` as the molecule, how does the pEC50 [2] read?
The pEC50 was 4.96.

Which percent response, lower = inhibition [1] does the source give for `O=C(Nc1cccc(Cl)c1)Nc1ccc2nccnc2c1` here?
The percent response, lower = inhibition was 87.5% (inactive).

Which percent response, lower = inhibition [1] does the source give for `O=c1[nH]c(O)c(C=Nc2ccc(F)c(Cl)c2)c(=O)[nH]1` here?
Its percent response, lower = inhibition is 106% (inactive).

With `O=C(Nc1cccc2nccnc12)c1ccccc1` as the molecule, how does the percent response, lower = inhibition [1] read?
Its percent response, lower = inhibition is 80.3% (inactive).

With `O=C(c1cccc2nc3ccccc3nc12)N1CCOCC1` as the molecule, how does the pEC50 [2] read?
The pEC50 was 5.63.

With `O=C(O)c1cnc2ccccc2n1` as the molecule, how does the percent response, lower = inhibition [1] read?
Its percent response, lower = inhibition is 75.7% (inactive).

Which percent response, lower = inhibition [1] does the source give for `O=C(Nc1ccc2nccnc2c1)NC1CCCCC1` here?
Its percent response, lower = inhibition is 96% (inactive).

With `CCc1nc(NC(C)(C)C)c2cnn(-c3ccccc3)c2n1` as the molecule, how does the percent response, lower = inhibition [1] read?
The percent response, lower = inhibition was 117% (inactive).

For `C=CCSc1ccc(-c2ccc([N+](=O)[O-])cc2)o1`, which percent response, lower = inhibition [1] is on record?
Its percent response, lower = inhibition is 54.8% (inactive).

For `Cn1c(O)c(C(=Nc2ccc(F)cc2)c2ccccc2Cl)c(=O)n(C)c1=O`, which percent response, lower = inhibition [1] is on record?
The percent response, lower = inhibition was 98.6% (inactive).

With `Cc1cc(C)cc(NC(=O)CN2CCN(c3ccccn3)CC2)c1` as the molecule, how does the percent response, lower = inhibition [1] read?
Its percent response, lower = inhibition is 99.1% (inactive).

With `O=C(/C=C/c1cccs1)NC(=S)NNC(=O)Cc1cccs1` as the molecule, how does the percent response, lower = inhibition [1] read?
Its percent response, lower = inhibition is 66.6% (inactive).

With `CSc1nnc(-c2ccc([N+](=O)[O-])cc2)o1` as the molecule, how does the percent response, lower = inhibition [1] read?
The percent response, lower = inhibition was 74% (inactive).

With `CC(C)(C)n1nc(-c2ccc(F)cc2)c2c(N)ncnc21` as the molecule, how does the pEC50 [2] read?
The pEC50 was 4.76.

With `CCN(CC)C(=O)c1cccc2nc3ccccc3nc12` as the molecule, how does the pEC50 [2] read?
The pEC50 was 5.55.

With `COc1ccc2c(c1)c1nnc(SC)nc1n2C` as the molecule, how does the pEC50 [2] read?
Its pEC50 is 5.80.

Which percent response, lower = inhibition [1] does the source give for `Cc1cc2nc3ccc(N(C)C)cc3nc2cc1N` here?
Its percent response, lower = inhibition is 89.3% (inactive).

Which percent response, lower = inhibition [1] does the source give for `O=C(Nc1ccc2nccnc2c1)N1CCN(c2ccccc2)CC1` here?
The percent response, lower = inhibition was 91.3% (inactive).

With `CC(C)(C)n1nc(-c2ccc(Cl)cc2)c2c(N)ncnc21` as the molecule, how does the pEC50 [2] read?
Its pEC50 is 5.10.

Which percent response, lower = inhibition [1] does the source give for `O=C(O)c1ccc2nccnc2c1` here?
The percent response, lower = inhibition was 85.8% (inactive).

With `C#CCSc1ccc(-c2ccc([N+](=O)[O-])cc2)o1` as the molecule, how does the percent response, lower = inhibition [1] read?
The percent response, lower = inhibition was 58% (inactive).

For `c1ccc2nc3ccccc3nc2c1`, which percent response, lower = inhibition [1] is on record?
The percent response, lower = inhibition was 119% (inactive).

For `Cc1cc(C)c2[nH]c3nc(SCC(=O)O)nnc3c2c1`, which percent response, lower = inhibition [1] is on record?
The percent response, lower = inhibition was 92.4% (inactive).

With `c1ccc2[nH]c3cc4ncnc4cc3nc2c1` as the molecule, how does the pEC50 [2] read?
Its pEC50 is 5.95.

For `N#CC(c1nc2ccccc2nc1N1CCCC1)S(=O)(=O)c1ccccc1` (stereo not drawn), which percent response, lower = inhibition [1] is on record?
Its percent response, lower = inhibition is 89.3% (inactive).

With `CCC(=Nc1ccccc1O)C1=C(O)CC(c2ccccc2)CC1=O` (stereo not drawn) as the molecule, how does the percent response, lower = inhibition [1] read?
The percent response, lower = inhibition was 62.2% (inactive).

For `C[C@@]12C(=O)OC(=O)[C@]1(C)C1CCC2O1`, which percent response, lower = inhibition [1] is on record?
The percent response, lower = inhibition was 351% (inactive).

With `N#CCc1nn(-c2ccccc2)c2ncnc(N)c12` as the molecule, how does the pEC50 [2] read?
The pEC50 was 6.10.

Which percent response, lower = inhibition [1] does the source give for `COc1ccc2nc3ccccc3[n+]([O-])c2c1` here?
Its percent response, lower = inhibition is 122% (inactive).

With `CNc1ccc2nc3ccccc3[n+](C)c2c1` as the molecule, how does the pEC50 [2] read?
Its pEC50 is 5.22.

Which percent response, lower = inhibition [1] does the source give for `O=C(Nc1ccc2nccnc2c1)N1CCOCC1` here?
Its percent response, lower = inhibition is 96.4% (inactive).

With `FC(F)(F)c1nc2cc3nc4ccccc4[nH]c3cc2n1` as the molecule, how does the pEC50 [2] read?
Its pEC50 is 6.29.

With `COc1cccc2nc3cc(C)c(C)cc3nc12` as the molecule, how does the pEC50 [2] read?
Its pEC50 is 6.05.

For `O=C(OCc1c(F)cccc1Cl)c1cnc2ccccc2n1`, which percent response, lower = inhibition [1] is on record?
The percent response, lower = inhibition was 86.9% (inactive).

Which percent response, lower = inhibition [1] does the source give for `CC(C)CSc1nnc2c3ccccc3n(C)c2n1` here?
Its percent response, lower = inhibition is 110% (inactive).

Which percent response, lower = inhibition [1] does the source give for `Cn1c(=O)[nH]c2nncnc2c1=O` here?
Its percent response, lower = inhibition is 111% (inactive).

With `O=C1c2c(O)ccc(O)c2C(=O)c2c(NCCNCCO)ccc(NCCNCCO)c21` as the molecule, how does the pEC50 [2] read?
The pEC50 was 5.47.

For `CN1CCN(C(=O)c2ccc3nccnc3c2)CC1`, which percent response, lower = inhibition [1] is on record?
The percent response, lower = inhibition was 105% (inactive).

Which percent response, lower = inhibition [1] does the source give for `Oc1cccc2nc3ccccc3nc12` here?
The percent response, lower = inhibition was 194% (inactive).

For `C=CCOn1c(=O)c(-c2cccs2)[n+]([O-])c2ccccc21`, which percent response, lower = inhibition [1] is on record?
The percent response, lower = inhibition was 112% (inactive).

Which percent response, lower = inhibition [1] does the source give for `COc1ccc2nc3ccccc3nc2c1` here?
Its percent response, lower = inhibition is 108% (inactive).

Which percent response, lower = inhibition [1] does the source give for `O=C(Nc1ccc2nc3ccccc3nc2c1)c1ccc(Br)cc1` here?
The percent response, lower = inhibition was 88% (inactive).

For `O=C(c1ccc2nccnc2c1)N1CCCCC1`, which percent response, lower = inhibition [1] is on record?
Its percent response, lower = inhibition is 105% (inactive).

For `CCn1c2ccccc2c2n[nH]c(=S)nc21`, which percent response, lower = inhibition [1] is on record?
Its percent response, lower = inhibition is 99.9% (inactive).

With `Nc1ccc2nccnc2c1` as the molecule, how does the percent response, lower = inhibition [1] read?
The percent response, lower = inhibition was 96.2% (inactive).

With `O=C(NCc1ccccc1)c1ccc2nccnc2c1` as the molecule, how does the percent response, lower = inhibition [1] read?
The percent response, lower = inhibition was 178% (inactive).

For `O=C(c1cccc2nccnc12)N1CCOc2ccccc21`, which percent response, lower = inhibition [1] is on record?
Its percent response, lower = inhibition is 96.8% (inactive).

With `O=C(/C=C/c1ccccc1)NC(=S)NNC(=O)Cc1cccs1` as the molecule, how does the percent response, lower = inhibition [1] read?
Its percent response, lower = inhibition is 74.9% (inactive).

With `COc1ccc2nc3ccccc3nc2c1NC(=O)c1ccccc1Cl` as the molecule, how does the pEC50 [2] read?
The pEC50 was 5.95.

With `CCN(CC)c1ccc2nc3ccc(N)cc3[n+](-c3ccccc3)c2c1` as the molecule, how does the pEC50 [2] read?
Its pEC50 is 4.58.

For `O=C(c1cccc2nccnc12)N1CCN(c2ccccc2F)CC1`, which percent response, lower = inhibition [1] is on record?
The percent response, lower = inhibition was 101% (inactive).

Which percent response, lower = inhibition [1] does the source give for `COc1ccc2cc(C3CC(c4ccco4)=NN3S(=O)(=O)c3ccccc3)c(Cl)nc2c1` (stereo not drawn) here?
The percent response, lower = inhibition was 97.3% (inactive).

With `CCN(CC)C(=O)CSc1nnc(-c2cccc(OC)c2)o1` as the molecule, how does the percent response, lower = inhibition [1] read?
Its percent response, lower = inhibition is 104% (inactive).

With `Cc1ccc(-c2nn(C(C)(C)C)c3ncnc(N)c23)cc1` as the molecule, how does the pEC50 [2] read?
The pEC50 was 5.65.

With `O=C(Nc1ccc2nccnc2c1)c1cccc2nccnc12` as the molecule, how does the percent response, lower = inhibition [1] read?
Its percent response, lower = inhibition is 80.9% (inactive).

With `COc1ccc2nc3ccccc3nc2c1N` as the molecule, how does the pEC50 [2] read?
The pEC50 was 5.63.

Which percent response, lower = inhibition [1] does the source give for `O=C(Nc1ccccc1)c1ccc2nccnc2c1` here?
Its percent response, lower = inhibition is 96.8% (inactive).

Which percent response, lower = inhibition [1] does the source give for `[O-][n+]1c2ccccc2[n+]([O-])c2cc(O)ccc21` here?
Its percent response, lower = inhibition is 126% (inactive).

Which percent response, lower = inhibition [1] does the source give for `CC(C)(C)Nc1ncnc2c1cnn2-c1ccccc1` here?
Its percent response, lower = inhibition is 94.4% (inactive).

For `CN(C)CCNc1ncnc2c1cnn2-c1ccc(Cl)cc1`, which percent response, lower = inhibition [1] is on record?
The percent response, lower = inhibition was 92% (inactive).
